{
  "source": "patent US6627210B2",
  "about": "“Compositions containing α-2-adrenergic agonist components” (Allergan, Inc., priority 2000, dated 2003)",
  "key": {"[1]": {"conditions": "composition including chlorite, equilibrated ten days", "method": "Brimonidine tartrate is added to a test tube containing a composition including chlorite. The test tube was allowed to equilibrate for ten days. Samples obtained from the test tube is analyzed."}, "[2]": {"conditions": "for Solubility: 23° C., stirred 2 days", "method": "Table 1. It will be understood that concentrations of adrenergic agonists other than 0.5% may be used, so long as they have therapeutic activity. Likewise, the temperature may be varied, for example, solubility curves may be performed at 37° C. (98.6° F.). The formulation vehicle was prepared by first dissolving polyvinyl alcohol (PVA) in water. The PVA was added to approximately ⅓ of the required total amount of purified water with constant stirring. The slurry was stirred for 20-30 minutes and then heated to 80-95° C. with constant stirring. The mixture was removed from the heat source within 1 hour after having reached the temperature of 80-90° C. and stirred for an additional 10 minutes to ensure homogeneity (Part I). The other ingredients of the Ophthalmic Solution, except for Brimonidine tartrate, were dissolved in a separate container with an additional ⅓ of the required total amount of purified water (Part II). The PVA mixture (Part I) was then quantitatively transferred to Part II using several rinse volumes of purified water. The solution was adjusted to final volume with purified water without pH adjustment.\nBrimonidine tartrate was weighed and transferred to a 10 mL test tube containing 5 mL of the formulation vehicle described above. The pH of each sample was then adjusted to a desired value using dilute sodium hydroxide and/or dilute hydrochloric acid. The samples were placed in a rack on a stir plate and stirred at high speed to achieve uniform mixing for 2 days; a partition was placed between the rack and the stir plate to prevent any heat diffusion from the stir plate to the samples.\nAt the end of two days of stirring, the pH value of each sample was measured, and then approximately 1 mL of each sample was placed in a micro centrifuge tube (polypropylene) and centrifuged at 4,000 rpm for 10 minutes. The supernatant was filtered through a 1 μm filter unit (Whatman, 13 mm, PTFE). The first 3-4 drops of the filtrate were discarded; the rest of the filtrate was received and diluted quantitatively with HPLC mobile phase. The dilute sample was then injected directly on the HPLC column (Dupont Zorbax, 250 mm×4.6 mm, 5 μm) for Brimonidine tartrate assay in order to quantify the amount of Brimonidine tartrate. A control of 10.05% Brimonidine tartrate was prepared in the formulation vehicle at pH 6.3-6.5 and assayed before (untreated) and after (treated) centrifugation and filtration. This was done to evaluate the potential loss of Brimonidine tartrate in these two steps of the sample preparation. To ensure reproducibility, the study was repeated on consecutive days."}, "[3]": {"conditions": "for Solubility of Brimonidine tartrate: 0% CMC", "method": "The pH-solubility profiles of Brimonidine tartrate in compositions (solutions) containing SECs and oxy-chloro components were determined. Particularly, the effects of sodium carboxymethylcellulose (CMC), an SEC, on the solubility of Brimonidine tartrate at various pH conditions were determined. The various concentrations of CMC tested with Brimonidine tartrate were 0%, 0.056%, 0.17%, 0.5%, 1.5% (w/v), Table III.\nThe samples tested also contained isotonic components, buffer components, and stabilized chlorine dioxide (Purite™), Table III. Sodium carboxymethyl-cellulose, sodium chloride, potassium chloride, calcium chloride dihydrate, and magnesium chloride hexahydrate were USP grade. Boric acid and sodium borate decahydrate were NF grade.\nEach sample (1 through 5) was subjected to a range of pH's from about 7 to about 10. The vials containing the sample solutions were placed on a laboratory rotator and left for equilibration for fifteen days at room temperature (˜21° C.). The sample solutions were filtered using a 25 mm diameter polysulfone cellulose acetate syringe type filter with 0.45 μm pore size. The filtered solutions were assayed for Brimonidine.\nConventional HPLC and detection techniques were used to detect and determine the concentrations of soluble Brimonidine tartrate. […] The solubility is plotted against pH for each CMC concentration. The experimental data points were fitted to a modified Henderson-Hasselbalch equation using a nonlinear least squares routine (Deltagraph version 4.0 DeltaPoint, Inc.), FIG. 1."}},
  "note": "Like-named read-outs stand apart in the source and are kept apart here. Marks after values point to notes of the source that are not given here.",
  "data": [
    {"substance": "tartrate of 5-bromo-6-(2-imidozolin-2-ylamino) quinoxaline [Brimonidine tartrate]", "values": [
      {"measurement": "formation of dimers", "setting": "[1]", "result": "a portion of the Brimonidine tartrate monomer units conjugated to form dimers"},
      {"measurement": "Solubility", "setting": "[2]; Study 1, pH 5.55, Ophthalmic Solution vehicle, theoretical concentration based on sample weight, solution clear", "result": "≧164.4^b % w/v"},
      {"measurement": "Solubility", "setting": "[2]; Study 1, pH 5.92, Ophthalmic Solution vehicle", "result": 132.6, "unit": "% w/v"},
      {"measurement": "Solubility", "setting": "[2]; Study 1, pH 6.14, Ophthalmic Solution vehicle", "result": 30.4, "unit": "% w/v"},
      {"measurement": "Solubility", "setting": "[2]; Study 1, pH 6.57, Ophthalmic Solution vehicle", "result": 7.55, "unit": "% w/v"},
      {"measurement": "Solubility", "setting": "[2]; Study 1, pH 7.00, Ophthalmic Solution vehicle", "result": 2.69, "unit": "% w/v"},
      {"measurement": "Solubility", "setting": "[2]; Study 1, pH 7.45, Ophthalmic Solution vehicle", "result": 1.17, "unit": "% w/v"},
      {"measurement": "Solubility", "setting": "[2]; Study 1, pH 7.83, Ophthalmic Solution vehicle", "result": 0.62, "unit": "% w/v"},
      {"measurement": "Solubility", "setting": "[2]; Study 2, pH 5.50, Ophthalmic Solution vehicle, theoretical concentration based on sample weight, solution clear", "result": "≧200.6^b % w/v"},
      {"measurement": "Solubility", "setting": "[2]; Study 2, pH 5.92, Ophthalmic Solution vehicle", "result": 160.8, "unit": "% w/v"},
      {"measurement": "Solubility", "setting": "[2]; Study 2, pH 6.06, Ophthalmic Solution vehicle", "result": 50.1, "unit": "% w/v"},
      {"measurement": "Solubility", "setting": "[2]; Study 2, pH 6.90, Ophthalmic Solution vehicle", "result": 3.19, "unit": "% w/v"},
      {"measurement": "Solubility", "setting": "[2]; Study 2, pH 7.40, Ophthalmic Solution vehicle", "result": 1.19, "unit": "% w/v"},
      {"measurement": "Solubility", "setting": "[2]; Study 2, pH 7.77, Ophthalmic Solution vehicle", "result": 0.63, "unit": "% w/v"},
      {"measurement": "Solubility", "setting": "[2]; Study 2, pH 7.86, Ophthalmic Solution vehicle", "result": 0.58, "unit": "% w/v"},
      {"measurement": "Solubility", "setting": "[2]; Study 2, pH 7.88, Ophthalmic Solution vehicle", "result": 0.54, "unit": "% w/v"},
      {"measurement": "pH dependence of solubility", "setting": "[2]; formulation vehicles, pH range of 5-8", "result": "highly pH-dependent"},
      {"measurement": "Solubility of Brimonidine tartrate", "setting": "[3]; pH 6.68, equilibrated fifteen days at room temperature (~21° C.)", "result": 1.4256, "unit": "%"},
      {"measurement": "Solubility of Brimonidine tartrate", "setting": "[3]; pH 7.11, equilibrated fifteen days at room temperature (~21° C.)", "result": 0.2064, "unit": "%"},
      {"measurement": "Solubility of Brimonidine tartrate", "setting": "[3]; pH 7.68, equilibrated fifteen days at room temperature (~21° C.)", "result": 0.0786, "unit": "%"},
      {"measurement": "Solubility of Brimonidine tartrate", "setting": "[3]; pH 8.50, equilibrated fifteen days at room temperature (~21° C.)", "result": 0.0286, "unit": "%"},
      {"measurement": "Solubility of Brimonidine tartrate", "setting": "[3]; pH 10.09, equilibrated fifteen days at room temperature (~21° C.)", "result": 0.0218, "unit": "%"},
      {"measurement": "soluble Brimonidine tartrate (FIG. 1)", "setting": "[3]; pH 7.5, 0% CMC", "result": 1000, "unit": "ppm"},
      {"measurement": "soluble Brimonidine tartrate (FIG. 1)", "setting": "[3]; pH 7.5, 0.056% CMC", "result": 1300, "unit": "ppm"},
      {"measurement": "soluble Brimonidine tartrate (FIG. 1)", "setting": "[3]; pH 7.5, 0.17% CMC", "result": 1300, "unit": "ppm"},
      {"measurement": "soluble Brimonidine tartrate (FIG. 1)", "setting": "[3]; pH 7.5, 0.5% CMC", "result": 1600, "unit": "ppm"},
      {"measurement": "soluble Brimonidine tartrate (FIG. 1)", "setting": "[3]; pH 7.5, 1.5% CMC", "result": "about 1400 ppm"}
    ]}
  ]
}
